From patent US20100285959A1, “HERBICIDAL MIXTURES” (priority 2006, published 2010)

What was measured:
[1] = system: kochia (KCHSC); test: Test 23 growth chamber, postemergence; format: in vivo, Kochia scoparia; conditions: 21 DAA; 2,4-D or MCPA alone 250 g a.i./ha
Procedure: (§1) A test was conducted to evaluate the effects on winter barley (HORVW, Hordeum vulgare L.), winter wheat (TRZAW, Triticum aestivum L.), and several weed species of mixtures of Compound 2 with the commercial herbicides (2,4-dichlorophenoxy)acetic acid (2,4-D) and (4-chloro-2-methylphenoxy)acetic acid (MCPA), auxin mimics. […] Plants were treated postemergence at the 2-4 leaf growth stage, and each treatment was replicated three times. […] Plants were watered as needed. […] Results are means of the three replicates.

[2] = system: Russian thistle (SASKR); test: Test 22 growth chamber, postemergence; format: in vivo, Salsola kali; conditions: 25 DAA; 2,4-D or MCPA alone 250 g a.i./ha
Procedure: (§2) A test was conducted to evaluate the effects on winter barley (HORVW, Hordeum vulgare L.), winter wheat (TRZAW, Triticum aestivum L.), and several weed species of mixtures of Compound 2 with the commercial herbicides (2,4-dichlorophenoxy)acetic acid (2,4-D) and (4-chloro-2-methylphenoxy)acetic acid (MCPA), auxin mimics. […] Plants were treated postemergence at the 2-4 leaf growth stage, except KCHSC, SASKR and STEME which were in the 4-8 leaf growth stage. Each treatment was replicated one time. […] Plants were watered as needed. […] Results are from single replicates.

[3] = system: wild chamomile (MATCH); test: Test 23 growth chamber, postemergence; format: in vivo, Matricaria chamomilla; conditions: 21 DAA; 2,4-D or MCPA alone 250 g a.i./ha
Procedure: as §1

[4] = system: Russian thistle (SASKR); test: Test 23 growth chamber, postemergence; format: in vivo, Salsola kali; conditions: 21 DAA; 2,4-D or MCPA alone 250 g a.i./ha
Procedure: as §1

[5] = system: wild mustard (SINAR); test: Test 23 growth chamber, postemergence; format: in vivo, Sinapis arvensis; conditions: 21 DAA; 2,4-D or MCPA alone 250 g a.i./ha
Procedure: as §1

[6] = system: wild mustard (SINAR); test: Test 22 growth chamber, postemergence; format: in vivo, Sinapis arvensis; conditions: 25 DAA; 2,4-D or MCPA alone 250 g a.i./ha
Procedure: as §2

[7] = system: winter wheat (TRZAW); test: Test 22 growth chamber, postemergence; format: in vivo, Triticum aestivum; conditions: 25 DAA; 2,4-D or MCPA alone 250 g a.i./ha
Procedure: as §2

[8] = system: winter wheat (TRZAW); test: Test 23 growth chamber, postemergence; format: in vivo, Triticum aestivum; conditions: 21 DAA; 2,4-D or MCPA alone 250 g a.i./ha
Procedure: as §1

[9] = system: galium (GALAP); test: Test 22 growth chamber, postemergence; format: in vivo, Galium aparine; conditions: 25 DAA; 2,4-D or MCPA alone 250 g a.i./ha
Procedure: as §2

[10] = system: winter barley (HORVW); test: Test 23 growth chamber, postemergence; format: in vivo, Hordeum vulgare; conditions: 21 DAA; 2,4-D or MCPA alone 250 g a.i./ha
Procedure: as §1

[11] = system: wild buckwheat (POLCO); test: Test 23 growth chamber, postemergence; format: in vivo, Polygonum convolvulus; conditions: 21 DAA; 2,4-D or MCPA alone 250 g a.i./ha
Procedure: as §1

[12] = system: common chickweed (STEME); test: Test 23 growth chamber, postemergence; format: in vivo, Stellaria media; conditions: 21 DAA; 2,4-D or MCPA alone 250 g a.i./ha
Procedure: as §1

[13] = system: galium (GALAP); test: Test 23 growth chamber, postemergence; format: in vivo, Galium aparine; conditions: 21 DAA; 2,4-D or MCPA alone 250 g a.i./ha
Procedure: as §1

[14] = system: common lambsquarters (CHEAL); test: Test 23 growth chamber, postemergence; format: in vivo, Chenopodium album; conditions: 21 DAA; 2,4-D or MCPA alone 250 g a.i./ha
Procedure: as §1

[15] = system: field poppy (PAPRH); test: Test 23 growth chamber, postemergence; format: in vivo, Papaver rhoeas; conditions: 21 DAA; 2,4-D or MCPA alone 250 g a.i./ha
Procedure: as §1

[16] = system: kochia (KCHSC); test: Test 22 growth chamber, postemergence; format: in vivo, Kochia scoparia; conditions: 25 DAA; 2,4-D or MCPA alone 250 g a.i./ha
Procedure: as §2

[17] = system: wild buckwheat (POLCO); test: Test 22 growth chamber, postemergence; format: in vivo, Polygonum convolvulus; conditions: 25 DAA; 2,4-D or MCPA alone 250 g a.i./ha
Procedure: as §2

[18] = system: winter barley (HORVW); test: Test 22 growth chamber, postemergence; format: in vivo, Hordeum vulgare; conditions: 25 DAA; 2,4-D or MCPA alone 250 g a.i./ha
Procedure: as §2

[19] = system: common chickweed (STEME); test: Test 22 growth chamber, postemergence; format: in vivo, Stellaria media; conditions: 25 DAA; 2,4-D or MCPA alone 250 g a.i./ha
Procedure: as §2

[20] = system: redroot pigweed (AMARE); test: Test 22 growth chamber, postemergence; format: in vivo, Amaranthus retroflexus; conditions: 25 DAA; 2,4-D or MCPA alone 250 g a.i./ha
Procedure: as §2

[21] = system: winter wheat (TRZAW); test: Test 20 growth chamber, postemergence; format: in vivo, Triticum aestivum; conditions: 25 DAA; 2,4-D or MCPA alone 250 g a.i./ha
Procedure: (§3) A test was conducted to evaluate the effects on winter barley (HORVW, Hordeum vulgare L.) and winter wheat (TRZAW, Triticum aestivum L.) of mixtures of Compound 2 with the commercial herbicides (2,4-dichlorophenoxy)acetic acid (2,4-D) and (4-chloro-2-methylphenoxy)acetic acid (MCPA), auxin mimics. […] Plants were treated postemergence at the 2-leaf growth stage, and each treatment was replicated a total of four times (three times in the loam/sand blend and one time in RediEarth). […] Plants were watered as needed. […] Results are the means of the four replicates.

[22] = system: common lambsquarters (CHEAL); test: Test 22 growth chamber, postemergence; format: in vivo, Chenopodium album; conditions: 25 DAA; 2,4-D or MCPA alone 250 g a.i./ha
Procedure: as §2

[23] = system: winter barley (HORVW); test: Test 20 growth chamber, postemergence; format: in vivo, Hordeum vulgare; conditions: 25 DAA; 2,4-D or MCPA alone 250 g a.i./ha
Procedure: as §3

[24] = system: redroot pigweed (AMARE); test: Test 23 growth chamber, postemergence; format: in vivo, Amaranthus retroflexus; conditions: 21 DAA; 2,4-D or MCPA alone 250 g a.i./ha
Procedure: as §1

[25] = system: field violet (VIOAR); test: Test 23 growth chamber, postemergence; format: in vivo, Viola arvensis; conditions: 21 DAA; 2,4-D or MCPA alone 250 g a.i./ha
Procedure: as §1

[26] = system: redroot pigweed (AMARE); test: Test 7 field trial, preemergence; format: in vivo, Amaranthus retroflexus
Procedure: (§4) Plots were 7.6 m long by 3.0 m wide with rows spaced 76 cm apart. Seeds were spaced 15 cm apart within the rows. The field was managed using conventional tillage practices. […] Wild radish was evaluated 14 and 28 days after application. […] Results are the means of the three replicates.

[27] = system: morningglory (IPOSS); test: Test 7 field trial, preemergence; format: in vivo, Ipomoea L. spp.
Procedure: as §4

[28] = system: corn (ZEAMD); test: Test 7 field trial, preemergence; format: in vivo, Zea mays ssp. indentata; conditions: hybrid Pioneer 36B10, corn (Zea mays ssp. indentata), in vivo, 62 days after application
Procedure: as §4

[29] = system: Pennsylvania smartweed (POLPY); test: Test 7 field trial, preemergence; format: in vivo, Polygonum pensylvanicum
Procedure: as §4

[30] = system: jimsonweed (DATST); test: Test 7 field trial, preemergence; format: in vivo, Datura stramonium
Procedure: as §4

[31] = system: annual grasses (GGGAN); test: Test 7 field trial, preemergence; format: in vivo, Gramineae
Procedure: as §4

[32] = system: wild radish (RAPRA); test: Test 7 field trial, preemergence; format: in vivo, Raphanus raphanistrum
Procedure: as §4

Cc1cc(Cl)ccc1OCC(=O)O [MCPA]
Postemergence KCHSC Obs [1]: 67 | Postemergence SASKR Obs [2]: 45 | Postemergence MATCH Obs [3]: 53 | Postemergence SASKR Obs [4]: 43 | Postemergence SINAR Obs [5]: 65 | Postemergence SINAR Obs [6]: 75 | Postemergence TRZAW Obs [7]: 10 | Postemergence TRZAW Obs [8]: 32 | Postemergence GALAP Obs [9]: 50 | Postemergence HORVW Obs [10]: 35 | Postemergence POLCO Obs [11]: 52 | Postemergence STEME Obs [12]: 55 | Postemergence GALAP Obs [13]: 43 | Postemergence CHEAL Obs [14]: 70 | Postemergence PAPRH Obs [15]: 57 | Postemergence KCHSC Obs [16]: 55 | Postemergence POLCO Obs [17]: 40 | Postemergence HORVW Obs [18]: 25 | Postemergence STEME Obs [19]: 50 | Postemergence AMARE Obs [20]: 65 | Postemergence TRZAW Obs [21]: 18 | Postemergence CHEAL Obs [22]: 65 | Postemergence HORVW Obs [23]: 33 | Postemergence AMARE Obs [24]: 63 | Postemergence VIOAR Obs [25]: 60

CCOC(=O)c1nc(C2CC2)nc(N)c1Br [Compound 6, ethyl 6-amino-5-bromo-2-cyclopropyl-4-pyrimidinecarboxylate]
AMARE Obs ([26]; 14 DAA, 125 g a.i./ha): 87% | AMARE Obs ([26]; 14 DAA, 250 g a.i./ha): 98% | AMARE Obs ([26]; 14 DAA, 500 g a.i./ha): 98% | AMARE Obs ([26]; 28 DAA, 125 g a.i./ha): 82% | AMARE Obs ([26]; 28 DAA, 250 g a.i./ha): 97% | AMARE Obs ([26]; 28 DAA, 500 g a.i./ha): 98% | AMARE Obs ([26]; 62 DAA, 125 g a.i./ha): 80% | AMARE Obs ([26]; 62 DAA, 250 g a.i./ha): 70% | AMARE Obs ([26]; 62 DAA, 500 g a.i./ha): 100% | IPOSS Obs ([27]; 14 DAA, 125 g a.i./ha): 93% | IPOSS Obs ([27]; 14 DAA, 250 g a.i./ha): 100% | IPOSS Obs ([27]; 14 DAA, 500 g a.i./ha): 100% | IPOSS Obs ([27]; 28 DAA, 125 g a.i./ha): 93% | IPOSS Obs ([27]; 28 DAA, 250 g a.i./ha): 100% | IPOSS Obs ([27]; 28 DAA, 500 g a.i./ha): 100% | IPOSS Obs ([27]; 62 DAA, 125 g a.i./ha): 100% | IPOSS Obs ([27]; 62 DAA, 250 g a.i./ha): 100% | IPOSS Obs ([27]; 62 DAA, 500 g a.i./ha): 100% | ZEAMD Obs [28]: 0% | POLPY Obs ([29]; 14 DAA, 125 g a.i./ha): 40% | POLPY Obs ([29]; 14 DAA, 250 g a.i./ha): 83% | POLPY Obs ([29]; 14 DAA, 500 g a.i./ha): 93% | POLPY Obs ([29]; 28 DAA, 125 g a.i./ha): 45% | POLPY Obs ([29]; 28 DAA, 250 g a.i./ha): 80% | POLPY Obs ([29]; 28 DAA, 500 g a.i./ha): 88% | POLPY Obs ([29]; 62 DAA, 125 g a.i./ha): 75% | POLPY Obs ([29]; 62 DAA, 250 g a.i./ha): 55% | POLPY Obs ([29]; 62 DAA, 500 g a.i./ha): 100% | DATST Obs ([30]; 14 DAA, 125 g a.i./ha): 87% | DATST Obs ([30]; 14 DAA, 250 g a.i./ha): 100% | DATST Obs ([30]; 14 DAA, 500 g a.i./ha): 95% | DATST Obs ([30]; 28 DAA, 125 g a.i./ha): 90% | DATST Obs ([30]; 28 DAA, 250 g a.i./ha): 100% | DATST Obs ([30]; 28 DAA, 500 g a.i./ha): 100% | DATST Obs ([30]; 62 DAA, 125 g a.i./ha): 75% | DATST Obs ([30]; 62 DAA, 250 g a.i./ha): 100% | DATST Obs ([30]; 62 DAA, 500 g a.i./ha): 90% | GGGAN Obs ([31]; 14 DAA, 125 g a.i./ha): 7% | GGGAN Obs ([31]; 14 DAA, 250 g a.i./ha): 53% | GGGAN Obs ([31]; 14 DAA, 500 g a.i./ha): 63% | GGGAN Obs ([31]; 28 DAA, 125 g a.i./ha): 2% | GGGAN Obs ([31]; 28 DAA, 250 g a.i./ha): 35% | GGGAN Obs ([31]; 28 DAA, 500 g a.i./ha): 52% | GGGAN Obs ([31]; 62 DAA, 125 g a.i./ha): 90% | GGGAN Obs ([31]; 62 DAA, 250 g a.i./ha): 0% | GGGAN Obs ([31]; 62 DAA, 500 g a.i./ha): 0% | RAPRA Obs ([32]; 14 DAA, 125 g a.i./ha): 25% | RAPRA Obs ([32]; 14 DAA, 250 g a.i./ha): 40% | RAPRA Obs ([32]; 14 DAA, 500 g a.i./ha): 43% | RAPRA Obs ([32]; 28 DAA, 125 g a.i./ha): 35% | RAPRA Obs ([32]; 28 DAA, 250 g a.i./ha): 30% | RAPRA Obs ([32]; 28 DAA, 500 g a.i./ha): 30%
